Drawing on ChEMBL document CHEMBL6120971 (J Med Chem, 2024), this text covers Activity and IC50 for 27 compounds.

Assay [1] concerns the target von Hippel-Lindau disease tumor suppressor/Hepatocyte growth factor receptor (Homo sapiens, UniProt P08581+P40337). Briefly: PROTAC activity at VHL/c-MET in human MKN-45 cells assessed as induction of c-MET degradation by measuring residual activity at 100 nM incubated for 24 hrs by Western blot analysis (reference value: 100 %). In kind it is cell-based.
In another assay the test system is MKN-45. Briefly: Antiproliferative activity against human MKN-45 cells incubated for 72 hrs by CCK8 assay. It is filed as functional, cell-based. The note with it: MKN-45, 72 h.

von Hippel-Lindau disease tumor suppressor/Hepatocyte growth factor receptor, sequence (P40337 whole entry partner): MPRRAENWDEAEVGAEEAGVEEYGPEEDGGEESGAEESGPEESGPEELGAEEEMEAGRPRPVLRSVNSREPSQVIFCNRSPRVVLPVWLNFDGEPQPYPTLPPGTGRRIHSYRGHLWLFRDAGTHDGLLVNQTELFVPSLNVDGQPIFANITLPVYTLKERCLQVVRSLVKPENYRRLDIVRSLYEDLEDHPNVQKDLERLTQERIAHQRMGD
von Hippel-Lindau disease tumor suppressor/Hepatocyte growth factor receptor, sequence (P08581 25-1390 limits assumed): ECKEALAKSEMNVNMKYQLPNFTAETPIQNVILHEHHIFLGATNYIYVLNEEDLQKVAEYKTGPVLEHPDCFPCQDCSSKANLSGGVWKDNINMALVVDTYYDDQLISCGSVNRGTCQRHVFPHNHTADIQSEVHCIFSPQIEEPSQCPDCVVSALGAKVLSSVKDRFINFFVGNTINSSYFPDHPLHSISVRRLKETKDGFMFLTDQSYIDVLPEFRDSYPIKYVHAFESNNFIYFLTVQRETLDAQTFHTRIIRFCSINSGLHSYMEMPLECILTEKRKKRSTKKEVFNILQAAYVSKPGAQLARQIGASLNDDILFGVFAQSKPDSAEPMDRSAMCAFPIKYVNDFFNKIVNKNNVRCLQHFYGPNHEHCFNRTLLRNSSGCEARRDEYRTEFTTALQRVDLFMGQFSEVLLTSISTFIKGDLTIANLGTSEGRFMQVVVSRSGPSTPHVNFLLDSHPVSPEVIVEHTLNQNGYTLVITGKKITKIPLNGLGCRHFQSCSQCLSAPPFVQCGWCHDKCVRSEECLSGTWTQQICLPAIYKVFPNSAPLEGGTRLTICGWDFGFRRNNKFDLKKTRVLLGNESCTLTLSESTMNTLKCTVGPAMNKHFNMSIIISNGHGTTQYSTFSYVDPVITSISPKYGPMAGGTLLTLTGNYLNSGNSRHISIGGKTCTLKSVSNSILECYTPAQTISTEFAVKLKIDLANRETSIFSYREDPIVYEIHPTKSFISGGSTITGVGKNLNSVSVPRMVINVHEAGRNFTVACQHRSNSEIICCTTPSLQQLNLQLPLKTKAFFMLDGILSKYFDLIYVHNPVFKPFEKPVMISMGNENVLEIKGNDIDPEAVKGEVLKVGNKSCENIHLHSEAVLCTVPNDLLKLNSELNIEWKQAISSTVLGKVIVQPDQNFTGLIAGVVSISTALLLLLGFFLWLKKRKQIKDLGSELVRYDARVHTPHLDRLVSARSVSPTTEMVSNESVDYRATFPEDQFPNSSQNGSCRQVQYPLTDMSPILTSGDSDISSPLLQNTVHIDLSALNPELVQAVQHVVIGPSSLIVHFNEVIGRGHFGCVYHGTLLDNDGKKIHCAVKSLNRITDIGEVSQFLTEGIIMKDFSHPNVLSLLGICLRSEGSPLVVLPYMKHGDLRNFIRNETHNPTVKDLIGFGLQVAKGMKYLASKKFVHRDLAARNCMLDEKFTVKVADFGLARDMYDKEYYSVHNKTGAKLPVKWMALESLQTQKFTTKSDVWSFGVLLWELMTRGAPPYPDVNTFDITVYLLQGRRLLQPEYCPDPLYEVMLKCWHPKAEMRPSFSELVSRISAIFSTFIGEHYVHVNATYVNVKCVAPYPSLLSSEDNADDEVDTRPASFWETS

With `Cc1ncsc1-c1ccc([C@H](C)NC(=O)[C@@H]2C[C@@H](O)CN2C(=O)[C@@H](NC(=O)CCOCCOCCC(=O)N2CCC(n3cc(-c4cnc(N)c(O[C@H](C)c5c(Cl)ccc(F)c5Cl)c4)cn3)CC2)C(C)(C)C)cc1`, the Activity in assay [1] came out at 107%.
For the compound `Cc1ncsc1-c1ccc([C@H](C)NC(=O)[C@@H]2C[C@@H](O)CN2C(=O)[C@@H](NC(=O)CCCCCCCCCCCNC(=O)c2ccc(-c3cnc4ncc(Cc5ccc6ncccc6c5)n4n3)cc2F)C(C)(C)C)cc1`, half-maximal inhibition in the assay on MKN-45 (IC50) required 29.1 nM. Moreover, the Activity in assay [1] stood at 51%.
In the case of `Cc1ncsc1-c1ccc([C@H](C)NC(=O)[C@@H]2C[C@@H](O)CN2C(=O)[C@@H](NC(=O)COCCOCCOCCOCCNC(=O)c2ccc(-c3cnc4ncc(Cc5ccc6ncccc6c5)n4n3)cc2F)C(C)(C)C)cc1`, in assay [1], the Activity worked out at 75%.
`Cc1ncsc1-c1ccc([C@H](C)NC(=O)[C@@H]2C[C@@H](O)CN2C(=O)[C@@H](NC(=O)CCCCCCCCCCC(=O)N2CCC(n3cc(-c4cnc(N)c(O[C@H](C)c5c(Cl)ccc(F)c5Cl)c4)cn3)CC2)C(C)(C)C)cc1`: the IC50 with MKN-45 was above 200 nM. For the same compound, in assay [1], the Activity stood at 73%.
As for `Cc1ncsc1-c1ccc([C@H](C)NC(=O)[C@@H]2C[C@@H](O)CN2C(=O)[C@@H](NC(=O)COCCOCCOCCNC(=O)c2ccc(-c3cnc4ncc(Cc5ccc6ncccc6c5)n4n3)cc2F)C(C)(C)C)cc1`, in assay [1], the Activity was found to be 73%.
As to `Cc1ncsc1-c1ccc([C@H](C)NC(=O)[C@@H]2C[C@@H](O)CN2C(=O)[C@@H](NC(=O)CCCCCCNC(=O)c2ccc(-c3cnc4ncc(Cc5ccc6ncccc6c5)n4n3)cc2F)C(C)(C)C)cc1`, the IC50 with MKN-45 was above 200 nM.
`Cc1ncsc1-c1ccc([C@H](C)NC(=O)[C@@H]2C[C@@H](O)CN2C(=O)[C@@H](NC(=O)CCCCC(=O)N2CCC(COc3cnc(-c4cccc(Cn5nc(-c6cccc(C#N)c6)ccc5=O)c4)nc3)CC2)C(C)(C)C)cc1` gave an IC50 in the assay on MKN-45 above 200 nM. Further, in assay [1], the Activity stood at 74%.
Turning to `Cc1ncsc1-c1ccc([C@H](C)NC(=O)[C@@H]2C[C@@H](O)CN2C(=O)[C@@H](NC(=O)CN2CCN(CCNC(=O)c3ccc(-c4cnc5ncc(Cc6ccc7ncccc7c6)n5n4)cc3F)CC2)C(C)(C)C)cc1`, the Activity in assay [1] was 61%.
The same measure, in the same setting: then `Cc1ncsc1-c1ccc([C@H](C)NC(=O)[C@@H]2C[C@@H](O)CN2C(=O)[C@@H](NC(=O)CCOCCOCCOCCOCCC(=O)N2CCC(n3cc(-c4cnc(N)c(O[C@H](C)c5c(Cl)ccc(F)c5Cl)c4)cn3)CC2)C(C)(C)C)cc1`, with 127%.
In the case of `Cc1ncsc1-c1ccc([C@H](C)NC(=O)[C@@H]2C[C@@H](O)CN2C(=O)[C@@H](NC(=O)CCCCCCCCNC(=O)c2ccc(-c3cnc4ncc(Cc5ccc6ncccc6c5)n4n3)cc2F)C(C)(C)C)cc1`, half-maximal inhibition with MKN-45 (IC50) was put at 44.7 nM.
Take `Cc1ncsc1-c1ccc([C@H](C)NC(=O)[C@@H]2C[C@@H](O)CN2C(=O)[C@@H](NC(=O)CN2CCN(CC(=O)N3CCC(n4cc(-c5cnc(N)c(O[C@H](C)c6c(Cl)ccc(F)c6Cl)c5)cn4)CC3)CC2)C(C)(C)C)cc1`: the Activity in assay [1] amounted to 123%.
Regarding `Cc1ncsc1-c1ccc([C@H](C)NC(=O)[C@@H]2C[C@@H](O)CN2C(=O)[C@@H](NC(=O)CCCCCCCCCCNC(=O)c2ccc(-c3cnc4ncc(Cc5ccc6ncccc6c5)n4n3)cc2F)C(C)(C)C)cc1`, in the assay on MKN-45, the midpoint of inhibition, the IC50, lay at 47.8 nM.
`Cc1ncsc1-c1ccc([C@H](C)NC(=O)[C@@H]2C[C@@H](O)CN2C(=O)[C@@H](NC(=O)CCCCC(=O)N2CCC(n3cc(-c4cnc(N)c(O[C@H](C)c5c(Cl)ccc(F)c5Cl)c4)cn3)CC2)C(C)(C)C)cc1`: the IC50 in the assay on MKN-45 was above 200 nM. The Activity in assay [1] is 100%.
`Cc1ncsc1-c1ccc([C@H](C)NC(=O)[C@@H]2C[C@@H](O)CN2C(=O)[C@@H](NC(=O)CN2CCN(CCCCCCNC(=O)c3ccc(-c4cnc5ncc(Cc6ccc7ncccc7c6)n5n4)cc3F)CC2)C(C)(C)C)cc1`: the Activity in assay [1] is 79%.
As for `Cc1ncsc1-c1ccc([C@H](C)NC(=O)[C@@H]2C[C@@H](O)CN2C(=O)[C@@H](NC(=O)CCOCCOCCOCCC(=O)N2CCC(n3cc(-c4cnc(N)c(O[C@H](C)c5c(Cl)ccc(F)c5Cl)c4)cn3)CC2)C(C)(C)C)cc1`, in assay [1], the Activity is 106%.
In the case of `Cc1ncsc1-c1ccc([C@H](C)NC(=O)[C@@H]2C[C@@H](O)CN2C(=O)[C@@H](NC(=O)CCCCCCCCCCC(=O)N2CCC(COc3cnc(-c4cccc(Cn5nc(-c6cccc(C#N)c6)ccc5=O)c4)nc3)CC2)C(C)(C)C)cc1`, the 50% inhibitory concentration (IC50) with MKN-45 was 149 nM. In addition, the Activity in assay [1] stood at 56%.
As for `Cc1ncsc1-c1ccc([C@H](C)NC(=O)[C@@H]2C[C@@H](O)CN2C(=O)[C@@H](NC(=O)CCOCCOCCOCCOCCC(=O)N2CCC(COc3cnc(-c4cccc(Cn5nc(-c6cccc(C#N)c6)ccc5=O)c4)nc3)CC2)C(C)(C)C)cc1`, the Activity in assay [1] turned out to be 62%.
Still for that read-out and setting: then `Cc1ncsc1-c1ccc([C@H](C)NC(=O)[C@@H]2C[C@@H](O)CN2C(=O)[C@@H](NC(=O)CN2CCN(CCCC(=O)N3CCC(COc4cnc(-c5cccc(Cn6nc(-c7cccc(C#N)c7)ccc6=O)c5)nc4)CC3)CC2)C(C)(C)C)cc1`, with 61%; and `Cc1ncsc1-c1ccc([C@H](C)NC(=O)[C@@H]2C[C@@H](O)CN2C(=O)[C@@H](NC(=O)CN2CCN(CCCC(=O)N3CCC(n4cc(-c5cnc(N)c(O[C@H](C)c6c(Cl)ccc(F)c6Cl)c5)cn4)CC3)CC2)C(C)(C)C)cc1`, with 111%.
The compound `Cc1ncsc1-c1ccc([C@H](C)NC(=O)[C@@H]2C[C@@H](O)CN2C(=O)[C@@H](NC(=O)CCCCCCC(=O)N2CCC(n3cc(-c4cnc(N)c(O[C@H](C)c5c(Cl)ccc(F)c5Cl)c4)cn3)CC2)C(C)(C)C)cc1` returned an IC50 with MKN-45 above 200 nM. Further, the Activity in assay [1] is 78%.
For the compound `Cc1ncsc1-c1ccc([C@H](C)NC(=O)[C@@H]2C[C@@H](O)CN2C(=O)[C@@H](NC(=O)COCCOCCNC(=O)c2ccc(-c3cnc4ncc(Cc5ccc6ncccc6c5)n4n3)cc2F)C(C)(C)C)cc1`, in assay [1], the Activity was 70%.
Still for that read-out and setting: then `Cc1ncsc1-c1ccc([C@H](C)NC(=O)[C@@H]2C[C@@H](O)CN2C(=O)[C@@H](NC(=O)CCOCCOCCOCCC(=O)N2CCC(COc3cnc(-c4cccc(Cn5nc(-c6cccc(C#N)c6)ccc5=O)c4)nc3)CC2)C(C)(C)C)cc1`, with 56%; and `Cc1ncsc1-c1ccc([C@H](C)NC(=O)[C@@H]2C[C@@H](O)CN2C(=O)[C@@H](NC(=O)CCOCCOCCC(=O)N2CCC(COc3cnc(-c4cccc(Cn5nc(-c6cccc(C#N)c6)ccc5=O)c4)nc3)CC2)C(C)(C)C)cc1`, with 66%.
Same read-out and setting: for `Cc1ncsc1-c1ccc([C@H](C)NC(=O)[C@@H]2C[C@@H](O)CN2C(=O)[C@@H](NC(=O)CN2CCN(CC(=O)N3CCC(COc4cnc(-c5cccc(Cn6nc(-c7cccc(C#N)c7)ccc6=O)c5)nc4)CC3)CC2)C(C)(C)C)cc1` the value was 40%; for `Cc1ncsc1-c1ccc([C@H](C)NC(=O)[C@@H]2C[C@@H](O)CN2C(=O)[C@@H](NC(=O)CN2CCN(CCCCNC(=O)c3ccc(-c4cnc5ncc(Cc6ccc7ncccc7c6)n5n4)cc3F)CC2)C(C)(C)C)cc1`, 78%; for `Cc1ncsc1-c1ccc([C@H](C)NC(=O)[C@@H]2C[C@@H](O)CN2C(=O)[C@@H](NC(=O)CN2CCN(CCCCCC(=O)N3CCC(COc4cnc(-c5cccc(Cn6nc(-c7cccc(C#N)c7)ccc6=O)c5)nc4)CC3)CC2)C(C)(C)C)cc1`, 71%.
On the same count and under the same terms, then `Cc1ncsc1-c1ccc([C@H](C)NC(=O)[C@@H]2C[C@@H](O)CN2C(=O)[C@@H](NC(=O)CN2CCN(CCCCCC(=O)N3CCC(n4cc(-c5cnc(N)c(O[C@H](C)c6c(Cl)ccc(F)c6Cl)c5)cn4)CC3)CC2)C(C)(C)C)cc1`, with 115%.
